Experimental data published in EP0656952B1, “CATIONIC PEPTIDES AND METHOD FOR PRODUCTION” (THE UNIVERSITY OF BRITISH COLUMBIA, priority 1992, dated 1994).

Tests used:
[1] = system: S. typhimurium defensin sensitive strain (C590); assay: Minimum inhibitory concentration (MIC), broth dilution; assay type: cell-based; conditions: MIC comparison with parent strain
Experimental: (§1) The minimum inhibitory concentrations of (MIC) of CEME, CEMA and melittin were determined for a number of different bacteria (Table 2). Briefly, cells were grown overnight at 37°C in LB-S (Luria broth without any salt supplement) and diluted one in 10,000 in the same medium to give concentrations of about 10^4 to 10^5 CFU/ml. The broth dilutions were set up in a 96 well microtiter plate by putting 200µl of LB-S containing the initial concentration of antibiotic or compound in column 1 and 100 µl of the same medium in columns 2-12. The compounds were diluted by taking 100 µl of broth from column 1 and mixing it with column 2, resulting in a one in two dilution. This was continued to column 10. Finally, 10 µl of bacteria were pipetted into columns 1-11, and the plates incubated overnight at 37°C. The next day the plates were scored for growth in the wells, and the MIC determined.

[2] = system: a number of different bacteria; assay: as above; assay type: cell-based; conditions: MIC comparison
Experimental: as §1

P. aeruginosa = assay: 1-N-phenylnaphthylamine (NPN) uptake assay; assay type: cell-based; conditions: 10 µM NPN, FIGURE 7
Excerpt: (§2) The second assay determined membrane permeability by the ability of 1-N-phenylnaphthylamine (NPN), a small fluorescent probe, to insert itself into the membrane. Normally, very little NPN can penetrate the outer membrane, but in the presence of a membrane permeabilizer it can insert into the hydrophobic membrane resulting in an increase in fluorescence (FIGURES 7 and 8). This N-phenylnaphthylamine uptake assay was previously described by Loh, et al., Antimicrobial Agents and Chemo., 26:546, 1984. Cells were prepared exactly the same as for the lysozyme lysis assay. 1-N-phenylnaphthylamine (NPN) was dissolved in acetone at a concentration of 500 µM. NPN fluorescence was measured in a Perkin-Elmer 650-10S fluorescent spectrophotometer using excitation and emission wavelengths set to 350 nm and 420 nm respectively, with slit widths of 5 nm. The assay was standardized by adding 20 µl of NPN (final concentration of 10 µM) and 10µl of 0.64 mg/ml of polymyxin B (final concentration of 6.4 µg/ml) into 1 ml of cells, and adjusting the resulting fluorescence to read 90% deflection (90 arbitrary units). Various compounds were tested by adding 10 µl of different concentrations to a cuvette containing 1 ml of cells and 10 µM NPN. Permeabilizing activity was designated as the total fluorescence minus the fluorescence due to NPN alone. Following the fluorescence measurement, the OD600 of the cells was taken to ensure no significant cell lysis had occurred.

E. cloacae = assay: 1-N-phenylnaphthylamine (NPN) uptake assay; assay type: cell-based; conditions: 10 µM NPN, FIGURE 8
Excerpt: as §2

P. aeruginosa H309 = assay: Lysozyme lysis assay (membrane permeabilization); assay type: cell-based; conditions: P. aeruginosa data only
Experimental: Membrane permeabilization by polycationic compounds was measured in two different assays. The first assay measured membrane disruption by the ability of lysozyme to reach the periplasm and cause cell lysis. […] The uptake of tysozyme into whole cells due to membrane permeabilization by various compounds was previously described in Hancock, et al., Antimicrobial Agents and Chemo., 19:777; 1981. Overnight cultures of P. aeruginosa H309 or E. cloacae 218R1 grown in LB-S were diluted 1 in 50 in fresh medium and grown to an OD600 ≈ 0.5-0.6. The cells were harvested in a Silencer H-103N clinical centrifuge at 1800 g for 10 min, washed once with one volume of assay buffer (5 mM HEPES pH 7.2, 5 mM KCN), and resuspended in the same buffer to an OD600 of 0.5. Assays consisted of 600 µl of cells with 50 µg/ml of chicken egg white lysozyme and varying concentrations of cationic compounds. Cell lysis was measured as a decrease in the OD600 in a Perkin-Emmer dual beam spectrophotometer. Parallel experiments performed without lysozyme enabled the measurement of the lytic activity of the compounds themselves. To test whether or not permeability to lysozyme could be inhibited by divalent cations, various concentrations of MgCl2 were added to the assay after the addition of lysozyme and before the addition of the test compound.

P. aeruginosa LPS = assay: Dansyl polymyxin (DPx) displacement assay with purified LPS; assay type: binding; conditions: on a µM basis, compared with polymyxin B
Experimental: DPx is a derivative of polymyxin that fluoresces strongly when bound to LPS, but weakly when free in solution. In this assay, DPx was incubated with LPS to saturate the binding sites and then, while polycationic compounds are titrated into the reaction, displacement of the DPx was monitored by the decrease in fluorescence (FIGURE 9). P. aeruginosa LPS was isolated as previously described (Darveau, et al., J. of Bacteriology, 155:831, 1983) Dansyl polymyxin was synthesized as described by Schindler, et al., B. Antimicrobial Agents and Chemo, 8:95, 1975.
Briefly, 40 mgs of polymyxin B and 10 mgs of dansyl chloride were mixed in 2 mls of 60 mM NaHC03 and 40% acetone and incubated in the dark for 90 minutes. […] The dansyl polymyxin was resuspended in 5 mM Hepes pH 7.0, quantitated by dinitrophenylation and stored in aliquots at -20°C.
The method of Moore, et al., (Antimicrobial Agents end Chemo., 29:496, 1987), was used to test how much DPx was needed to saturate the binding sties on LPS. Briefly, 5 µl samples of 100 µM DPx were titrated sequentially into 1ml of 3 µg/ml of LPS until a maximum fluorescence was reached. The fluorescence was measured in a Perkin-Elmer 650-10S fluorescence spectrophotometer with an excitation wavelength of 340 nm and an emission wavelength of 485 nm using slit widths of 5 nm. […]

[3] = Synergy: MIC of antibiotics in the presence of sub-MIC levels of cationic peptides; assay type: cell-based
Experimental: as §1
The ability of the cationic peptides to work synergystically was examined by determining the MIC values for some commonly used antibiotics in the presence of sub-MIC levels of cationic peptides (Table 4). […] This may be due to the high membrane permeabilizing activity of CEMA (see below). However, the peptides did lower the MIC of polymyxin B, possibly due to the fact that they are all taken up by the same pathway and are therefore aiding each other's uptake. […]

E. coli strain DC2 = assay: Acid-urea gel overlay antibacterial activity test; assay type: cell-based; conditions: acid-urea gel overlaid with agar containing ≈ 10^5 E. coli strain DC2, overnight at 37°C
Experimental: A sample of the partially purified CEME protein was electrophoresed on a 15% acid-urea gel, which separates proteins based on charge and mass (Panyim and Chalkey, Arch. Biochem. Biophys., 130:337, 1969). The pH of the buffer is acidic (≈ pH 5.0) and the polarity is reversed such that proteins migrate to the cathode. Therefore, the small cationic peptides run relatively quickly through the gel and thus can be easily identified. Antibacterial activity was tested as previously described (Hultmark, Eur. J. Biochem., 106:7, 1980). The gel was incubated in Mueller Hinton broth + 0.2M NaPO4 pH 7.4 for 1 hr. It was overlaid with 5 mls of the same media containing 0.6% agar and ≈ 10^5 E. coli strain DC2, and then again with 5 ml of the same media containing only 0.6% agar. […] Melittin is used as a positive control due to its antibacterial activity and similarity in size and PI values.

Compound	sensitivity of the S. typhimurium defensin sensitive strain (C590) [1]	resistance of the mutant SC9252 [2]	opening up the membrane to NPN (P. aeruginosa)	opening up the membrane to NPN (E. cloacae)	permeabilizer for lysozyme relative to gentamicin (P. aeruginosa H309; lysis without lysozyme taken into consideration)	cell lysis in the absence of lysozyme (P. aeruginosa H309; increased concentrations of peptide)	affinity for LPS (I50) (P. aeruginosa LPS)	effect on the MIC of polymyxin B [3]	zones of clearing at the migration site (E. coli strain DC2)
polymyxin B	four-fold more sensitive	increased resistance	equally active	equally active	–	–	–	–	–
melittin	two-fold more sensitive	–	less active	–	5- to 10 fold	cell lysis in the absence of lysozyme occurred	slightly lower affinities	lower than those in the presence of CEME and CEMA	zones of clearing
gentamicin	two-fold more sensitive	–	–	–	–	–	–	–	–
CC(C)(O/N=C(\C(=O)N[C@@H]1C(=O)N2C(C(=O)[O-])=C(C[n+]3ccccc3)CS[C@H]12)c1csc(N)n1)C(=O)O [ceftazidime]	unchanged	increased resistance	–	–	–	–	–	–	–
